# Experimental data from EP0613481B1, “TRIAMINO PLATINUM COMPLEXES AND A METHOD FOR THE SYNTHESIS THEREOF” (priority 1991, dated 1993).
# Legend:
# [1] = system: L 1210 murine leukemia cell line; test: 24 hours-thymidine uptake cytotoxicity, continuous exposition to the drugs; format: cell-based; conditions: for IC50: L1210, Mean ±SD, read-out: IC50 (Concentration producing 50% of inhibition)
# P388 leukemic cells = test: In vivo compared antitumor activity assay in mice infected with P388 leukemic cells; conditions: single administration
# [2] = system: P388 murine leukemic cells; test: In vitro cytotoxic activity; format: cell-based; conditions: at least comparable with cis-DDP
# [3] = system: K562 human erhytroleukemic cells; test: In vitro cytotoxic activity; format: cell-based; conditions: at least comparable with cis-DDP
# Jurkat human cells = test: In vitro cytotoxic activity; format: cell-based; conditions: at least comparable with cis-DDP
# L 1210/cis-DDP cell line = conditions: for IC50: read-out: IC50 (Concentration producing 50% of inhibition), L1210/cis-DDP, Mean ±SD
# [4] = mouse, in vivo, ip
# [5] = Acute intraperitoneal toxicity and renal toxicity in mice; conditions: acute intraperitoneal administration, dissolved into 0.9% aqueous NaCl
compound,measurement,setting,value
cis-diamino-chloro-4-[diethylammoniumethoxycarbonylphenyl]amino-platinum (II)^+ bis-chloride monohydrate [cis-DPR],IC50,[1],510 ± 80 nM
same,activity relative to cis-DDP (times more active),[1]; parental L 1210 cell line,about 1.6 times
same,ILS (highest increase in life span),P388 leukemic cells; 21 mg/kg,75%
same,percent body weight variation,"P388 leukemic cells; increase, 21 mg/kg",4.5%
same,cytotoxic activity,[2],significant cytotoxyc activity
same,cytotoxic activity,[3],significant cytotoxyc activity
same,cytotoxic activity,Jurkat human cells,significant cytotoxyc activity
same,"activity relative to cis-DDP (times greater, from IC50s)",L 1210/cis-DDP cell line; L 1210/cis-DDP cell line,about 10 times
same,IC50,L 1210/cis-DDP cell line,970 ± 170 nM
same,"kidney damages (plasma BUN increase, examination of renal tubules)",[4],no evaluable kidney damages
same,LD50,[5],39.3 mg/kg
"N.N.[Cl][Pt][Cl] [cis-DDP, cis-platinum, reference compound]",IC50,[1],840 ± 90 nM
same,ILS (highest increase in life span),P388 leukemic cells; 8 mg/kg,75%
same,percent body weight variation,"P388 leukemic cells; decrease, 8 mg/kg (maximum tolerated dose)",10.6%
same,IC50,L 1210/cis-DDP cell line,9600 ± 2800 nM
